# Source: US10363239B2, “Method for inhibiting growth of cancer cells” (Pain Therapeutics, Inc., priority 2013, dated 2019)
# Like-named read-outs stand apart in the source and are kept apart here.
# Key:
# [1] = biological target: FLNA pentapeptide of SEQ ID NO: 1 (Bn-VAKGL) (Homo sapiens, UniProt P21333); experiment: FITC-NLX-based FLNA screening assay (inhibition of FITC-naloxone binding to Bn-VAKGL on streptavidin plates); conditions: 10 nM FITC-NLX
# mu opiate receptor (MOR) = experiment: MOR agonist activity using [35S]GTPγS binding assay in striatal membranes; format: biochemical; conditions: for MOR agonist activity ([35S]GTPγS binding), FLNA-Binding Compound as Agonist 1 μM + BFNA: 1 μM compound + 1 μM β-funaltrexamine
# How it was run: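 Striatal membranes (200 μg) were preincubated 5 min at 30 °C in HEPES pH 7.5 with 100 mM NaCl, 1 mM MgCl2 and 0.5 nM [35S]GTPγS, then 5 min more with 0.1–10 μM compound. Gαo was immunoprecipitated and bound radioactivity counted by scintillation.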
# [2] = FLNA-binding compound 0.01 μM, read-out: Percent Binding Inhibition
# [3] = FLNA-binding compound 0.1 μM, read-out: Percent Binding Inhibition
# [4] = FLNA-binding compound 1 μM, read-out: Percent Binding Inhibition
# [5] = 0.1 μM compound relative to DAMGO
# [6] = 1 μM compound + BFNA relative to DAMGO + BFNA
# [7] = 1 μM compound relative to DAMGO
# [8] = Series B, 0.1 μM compound, relative to DAMGO
# [9] = Series B, 0.1 μM compound, [35S]GTPγS binding to Gαo, striatal membranes
# [10] = Series B, 1 μM compound + 1 μM β-FNA
# [11] = Series B, 1 μM compound + β-FNA, relative to DAMGO + BFNA
# [12] = Series B, 1 μM compound, relative to DAMGO
# [13] = Series B, 1 μM compound, [35S]GTPγS binding to Gαo, striatal membranes
# [14] = read-out: Percent Binding Inhibition, FLNA-binding compound 0.01 μM
# [15] = read-out: Percent Binding Inhibition, FLNA-binding compound 0.1 μM
# [16] = read-out: Percent Binding Inhibition, FLNA-binding compound 1 μM
# [17] = Series C-1, 0.1 μM compound, relative to DAMGO
# [18] = Series C-1, 0.1 μM compound, [35S]GTPγS binding to Gαo, striatal membranes
# [19] = Series C-1, 1 μM compound + 1 μM β-FNA
# [20] = Series C-1, 1 μM compound + β-FNA, relative to DAMGO + BFNA
# [21] = Series C-1, 1 μM compound, relative to DAMGO
# [22] = Series C-1, 1 μM compound, [35S]GTPγS binding to Gαo, striatal membranes
Compound,"inhibition at 0.01 µM [1, 2] [%]","inhibition at 0.1 µM [1, 3] [%]","inhibition at 1 µM [1, 4] [%]","MOR agonist activity ([35S]GTPγS binding), FLNA-Binding Compound as Agonist 0.1 μM (mu opiate receptor (MOR); 0.1 μM compound) [%]",% DAMGO (0.1 μM) (mu opiate receptor (MOR); [5]) [%],"MOR agonist activity ([35S]GTPγS binding), FLNA-Binding Compound as Agonist 1 μM (mu opiate receptor (MOR); 1 μM compound) [%]","MOR agonist activity ([35S]GTPγS binding), FLNA-Binding Compound as Agonist 1 μM + BFNA (mu opiate receptor (MOR)) [%]",% DAMGO + BFNA (mu opiate receptor (MOR); [6]) [%],% DAMGO (1 μM) (mu opiate receptor (MOR); [7]) [%],% DAMGO (0.1 μM) (mu opiate receptor (MOR); [8]) [%],"MOR agonist activity, percent [35S]GTPγS binding at the stated compound concentration (mu opiate receptor (MOR); [9]) [%]","MOR agonist activity, percent [35S]GTPγS binding at the stated compound concentration (mu opiate receptor (MOR); [10]) [%]",% DAMGO + BFNA (mu opiate receptor (MOR); [11]) [%],% DAMGO (1 μM) (mu opiate receptor (MOR); [12]) [%],"MOR agonist activity, percent [35S]GTPγS binding at the stated compound concentration (mu opiate receptor (MOR); [13]) [%]","inhibition at 0.01 µM [1, 14] [%]","inhibition at 0.1 µM [1, 15] [%]","inhibition at 1 µM [1, 16] [%]",other results
CC1CCC(C(C)C)C(OCC(O)CN2CC(C)CC(C)C2)C1 (stereo not drawn) [Compound A0008],34.5,33.5,39.8,163.8,109.6,235.0,133.9,505.3,102.1,–,–,–,–,–,–,–,–,–,–
COc1ccc(CCC(=O)CC2c3c(cc4c(c3OC)OCO4)CCN2C)cc1 (stereo not drawn) [Compound B0047],30.7,37.6,47.1,–,–,–,–,–,–,106.3,187.8,68.4,260.1,92.6,235.6,–,–,–,–
COc1cccc(S(=O)(=O)N2CCC3(CC2)OCCN3S(=O)(=O)c2cccc(OC)c2)c1 [Compound C0002],–,–,–,–,–,–,–,–,–,–,–,–,–,–,–,38.4,45.6,42.8,% DAMGO (0.1 μM) (mu opiate receptor (MOR); [17]): 51.4%; Concentration of FLNA-Binding Compound as Agonist 0.1 μM (mu opiate receptor (MOR); [18]): 88.4%; Concentration of FLNA-Binding Compound as Agonist 1 μM + BFNA (mu opiate receptor (MOR); [19]): 3.9%; % DAMGO + BFNA (mu opiate receptor (MOR); [20]): 6.1%; % DAMGO (1 μM) (mu opiate receptor (MOR); [21]): 33.9%; Concentration of FLNA-Binding Compound as Agonist 1 μM (mu opiate receptor (MOR); [22]): 93.8%
CC(=O)c1ccc(S(=O)(=O)N2C(Cc3c[nH]cn3)C(=O)NC23CCNCC3)cc1 (stereo not drawn) [Compound C0119M],–,–,–,–,–,–,–,–,–,–,–,–,–,–,–,41.6,55.5,60,"% DAMGO (0.1 μM) (mu opiate receptor (MOR); Series C-2, 0.1 μM compound, relative to DAMGO): 71.9%; MOR agonist activity, percent [35S]GTPγS binding at the stated compound concentration (mu opiate receptor (MOR); Series C-2, 0.1 μM compound, [35S]GTPγS binding to Gαo, striatal membranes): 105.7%; MOR agonist activity, percent [35S]GTPγS binding at the stated compound concentration (mu opiate receptor (MOR); Series C-2, 1 μM compound + 1 μM β-FNA): 35.1%; % DAMGO + BFNA (mu opiate receptor (MOR); Series C-2, 1 μM compound + β-FNA, relative to DAMGO + BFNA): 89.3%; % DAMGO (1 μM) (mu opiate receptor (MOR); Series C-2, 1 μM compound, relative to DAMGO): 83.0%; MOR agonist activity, percent [35S]GTPγS binding at the stated compound concentration (mu opiate receptor (MOR); Series C-2, 1 μM compound, [35S]GTPγS binding to Gαo, striatal membranes): 167.8%"
CC(=O)c1ccc(S(=O)(=O)N2CCC3(CC2)OCC(CCCCN(C)C)N3S(=O)(=O)c2ccc(C(C)=O)cc2)cc1 (stereo not drawn) [Compound C0080],46.8,53.3,54.6,–,–,–,–,–,–,–,–,–,–,–,–,–,–,–,% DAMGO (0.1 μM) (mu opiate receptor (MOR); [17]): 112.1%; Concentration of FLNA-Binding Compound as Agonist 0.1 μM (mu opiate receptor (MOR); [18]): 187.9%; Concentration of FLNA-Binding Compound as Agonist 1 μM + BFNA (mu opiate receptor (MOR); [19]): 167.1%; % DAMGO + BFNA (mu opiate receptor (MOR); [20]): 351.8%; % DAMGO (1 μM) (mu opiate receptor (MOR); [21]): 92.4%; Concentration of FLNA-Binding Compound as Agonist 1 μM (mu opiate receptor (MOR); [22]): 205.4%
CC1CCC(C(C)C)C(OCC(O)CN2CCCC2=O)C1 (stereo not drawn) [Compound A0035],40.3,45.5,54.9,120.6,61.5,158.8,88.6,119.9,57.5,–,–,–,–,–,–,–,–,–,–
Cc1cccc(OCC(O)CN2CC(C)OC(C)C2)c1 (stereo not drawn) [Compound A0030],35.6,44.4,48.9,133.4,75.5,287.8,165.2,628.1,113.2,–,–,–,–,–,–,–,–,–,–
COCOc1ccc(CCC(=O)CC2c3c(cc4c(c3OC)OCO4)CC[N+]2(C)C)cc1 (stereo not drawn) [Compound B0040],–,–,–,–,–,–,–,–,–,93.2,146.0,55.3,169.6,105.1,243.3,40,53.1,57.1,–
COc1ccc(CCC(O)CC2c3c(cc4c(c3OC)OCO4)CC[N+]2(C)C)cc1 (stereo not drawn) [Compound B0049],–,–,–,–,–,–,–,–,–,102.8,181.6,133.2,506.5,143.1,364.0,32.2,40.1,47.1,–
